According to patent publication US10550165B2, “Peptide for inducing regeneration of tissue and use thereof” (STEMRIM INC., priority 2011, dated 2020):

What was measured:
[1] = tested on: CD11b-negative, PDGFRα-positive cells (primary cultured bone marrow mesenchymal cells); assay: Migration assay on primary cultured CD11b-negative, PDGFRα-positive bone marrow cells; format: cell-based, mouse; details: peptide produced in HEK293, 40 μg/ml, FIG. 5
Method: Thigh and tibial bones were excised from donor mice: B6.129S4-Pdgfratm11(EGFP)Sor/J (PDGFRα-GFP Mouse). After removing attached muscles and other tissues, the bones were crushed finely and incubated with 0.2% collagenase (Roche, REF: 10103586001)/DMEM/2% FBS(filtrated) at 37° C. for 40 minutes. Then, cell aggregates and muscle tissues were removed by filtration through a 40-μm nylon mesh. After centrifugation at 1200 rpm for 10 minutes, the resulting cells were suspended in αMEM containing 10% FBS and 1% P/S and cultured in an incubator under 5% CO2 at 37° C. until they reached 100% confluence. The cells were harvested and the following experiment was carried out according to the protocol attached to CD11b MicroBeads (Miltenyi Biotec; order No: 130-049-601). The cells were adjusted to 10^7 cells/90 μl with PBS(−), and CD11b MicroBeads were added at 10 μl/10^7 cells. After 15 minutes of reaction at 4° C., the cells were washed twice and suspended in 500 μl of PBS(−). The tube was placed in AutoMACS separator and the cells were collected according to the separation program “Depletes”. The collected cells were plated onto an adherent cell culture dish. After adhesion, GFP fluorescence was observed using a fluorescence microscope. The above-described peptide 1-44 produced in HEK293 was tested for the migration-promoting activity using CD11b-negative cells. […]

[2] = tested on: mouse bone marrow mesenchymal stem cell line (MSC-1 cells), PDGFRα-positive; assay: Migration assay (Boyden / 48-well chemotaxis chamber) on bone marrow mesenchymal stem cell line MSC-1; format: cell-based
Procedure, shortened: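 Mouse MSC-1 cells (3×10^6 cells/ml in D-MEM with 10% FBS) loaded in the upper wells of a 48-well Boyden chamber with 8 μm polycarbonate membrane; mouse HMGB1 peptides or HEK293-made HMGB1 in lower wells at 100 μg/ml, 5 μM or 10 μM; PBS as negative control. After 4 h at 37° C, migrated cells were Diff-Quik stained.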

[3] = Youn et al., J Immunol 2008; cited from earlier work
[4] = tested on: skin flap made on the back of a rat; assay: Skin flap (skin damage) model on the back of rats; format: in vivo
Method: Experimental animals used were SD rats (male, eight weeks old). After sufficiently deep anesthesia by isoflurane inhalation, a rectangular skin incision of 3 cm width×7 cm length was made on the back. The cephalic side was left uncut, and the skin was thoroughly detached from the subcutaneous tissues. The three incised sides were sutured to the surrounding skin using #4 silk suture, and protected with Tegaderm (3M) to prevent bacterial infection.
The full-length mouse HMGB1 (100 μg/administration/day) produced in HEK293 and chemically synthesized HMGB1 peptide (amino acids 1 to 44; 50 μg/administration/day) were diluted to 200 μl with phosphate buffer and administered to rats via the caudal vein. The first administration was performed 6 hours after the surgery, and then the agents were administered every 24 hours a total of five times. Phosphate-buffered physiological saline was administered as a negative control. Tegaderm was removed after one week, and the wound region was observed weekly to measure the areas of necrosis and ulceration.
Experimental animals used were 15 SD rats (male, eight weeks old) per group. After sufficient anesthesia by isoflurane inhalation, a rectangular skin incision of 3 cm width×7 cm length was made on the back. The cephalic side was left uncut, and the skin was thoroughly detached from the subcutaneous tissues. The incised three sides were sutured to the surrounding skin using #4 silk suture, and protected with Tegaderm (3M) to prevent bacterial infection.
Chemically synthesized HMGB1 peptide (amino acids 1-44; 50 μg/administration/day) or HMGB1 peptide (amino acids 17-25; 50 μg/administration/day) was diluted to 200 μl with phosphate buffer and administered to the rats with experimental wound. The first administration was performed 6 hours after the surgery, and then the agents were administered every 24 hours a total of five times. Phosphate-buffered physiological saline was administered as a negative control. Tegaderm was removed after one week, and the wound was observed two weeks after the wound production. Uncured areas (ulceration and necrosis) were measured.

mouse keratinocytes = assay: Migration assay on mouse keratinocytes; format: cell-based; details: synthetic peptide, PDGFRα-negative cells, FIG. 12A
Method: Newborn C57/B16 mice were euthanized using isoflurane and carbon dioxide inhalation. Then, the mice were washed thoroughly with EtOH and PBS. The skin together with dermis was exfoliated and the blood was washed off with PBS. The exfoliated skin was placed in Dispase I (Sanko Junyaku Co., Cat: GD81060) at 4° C. for 16 hours. The epidermis and dermis were detached with forceps, and the epidermis was placed in trypsin (Nacalai tesque, Cat: 3554-64) at 37° C. for 10 minutes. When white turbidity began to appear, the reaction was stopped with S-MEM (GIBCO, Cat: 11380)/15% FBS(Ca-)P/S. The resulting cells were centrifuged at 160×G for 5 minutes, and suspended in CnT-07 medium (CELLnTEC, Cat: CnT-07 BM) and plated in a 10-cm dish. The cells were cultured under 5% CO2 at 37° C. and the medium was changed every three days. The cells were passaged when they reached 80% to 90% confluency. The cells were harvested from the dish using trypsin. After inactivation of trypsin with DMEM containing 10% FBS, a synthetic peptide consisting of the amino acid sequence of positions 1 to 34 (1-34) was examined for migration-promoting activity according to the migration assay method described above.

mouse skin fibroblasts = assay: Migration assay on mouse skin fibroblasts; format: cell-based; details: synthetic peptide, PDGFRα-positive cells, FIG. 13A
Method: Newborn C57/B16 mice were euthanized using isoflurane and carbon dioxide inhalation. Then, the mice were washed thoroughly with EtOH and PBS. The skin together with dermis was exfoliated and the blood was washed off with PBS. The exfoliated skin was cut into fine pieces with scissors. The skin pieces were placed in DMEM (Nacalai tesque, Cat: 08458-45) containing 0.2% collagenase (Roche, REF: 10103586001) and shaken at 37° C. for 30 minutes. The reaction was stopped with DMEM/30% FBS/P/S. The resulting cells were centrifuged at 160×G for 5 minutes and plated in a 10-cm dish. The cells were cultured under 5% CO2 at 37° C. and the medium was changed every three days. The cells were passaged when they reached 80% to 90% confluency. The cells were harvested from the dish using trypsin. After inactivation of trypsin with D-MEM containing 10% FBS, a synthetic peptide consisting of the amino acid sequence of positions 1 to 34 (1-34) was assessed for migration-promoting activity according to the migration assay method described above.

[5] = tested on: skin flap made on the back of a rat; assay: Skin flap (skin damage) model on the back of rats; format: in vivo; details: six weeks after skin flap production; 50 μg/administration/day, five administrations, FIG. 26
[6] = Side effects after administration of recombinant HMGB1 (previous studies of the inventors); format: in vivo; details: high concentration administered to mice or rats
Text: As described above, HMGB1 pharmaceuticals are revolutionary therapeutic agents that promote the recruitment of bone marrow mesenchymal stem cells into blood and accumulation of the cells to damaged tissues, thereby inducing tissue regeneration in the body. […] However, there are also reports that HMGB1 has an inflammatory effect. As described above, there are several findings on HMGB1; however, nothing is known about the effect of fragments of the HMGB1 protein on mesenchymal stem cells or what roles they play in tissue regeneration.

[7] = 2 μM, area of migrated cells by image analysis, FIG. 10
[8] = protein and peptides produced using HEK293 (mouse HMGB1), 50 μg/ml, 4 h, FIG. 2A

1-44: peptide of positions 1 to 44 of mouse HMGB1, produced using HEK293 (MGKGDPKKPRGKMSSYAFFVQTCREEHKKKHPDASVNFSEFSKK; UniProt P63158 1-44, looked up, fragment)
migration-promoting activity [1]: strong migration-promoting activity | migration-promoting activity relative to the full-length HMGB1, compared per equal mass [2, 7]: about 8 times | migration-promoting activity relative to the full-length HMGB1, compared per equal mole [2, 7]: about 1.6 times | migration-promoting activity [2, 8]: showed migration-promoting activity

1-215: whole mouse HMGB1 produced in HEK293, positive control [reference compound]
LPS-binding activity [3]: known to have the binding activity with lipopolysaccharide (LPS) | migration-promoting activity [2, 8]: showed migration-promoting activity | area of wound section (necrosed section) in the skin flap ([4]; one to three weeks after the skin flap was made, versus negative control, FIG. 25): effect of shrinking the wound section was confirmed | rats in which skin necrosis developed ([4]; one week after surgery, caudal vein, five administrations, full-length 100 μg, peptide 50 μg/administration/day, negative control four of five): three of five rats | rats with severe skin contracture ([4]; seven weeks after surgery, same regimen, negative control four of five, FIG. 24): three of five rats

(1-34): synthetic peptide consisting of the amino acid sequence from positions 1 to 34 of HMGB1 (MGKGDPKKPRGKMSSYAFFVQTCREEHKKKHPDA; UniProt P09429 1-34, looked up, fragment)
migration-promoting activity ([2]; synthetic peptides, 100 μg/ml, positive control 1-215(HEK), FIG. 7): activity comparable to or higher than that of the positive control | migration-promoting activity on mouse keratinocytes (mouse keratinocytes): did not show migration-promoting activity | migration-promoting activity on skin fibroblasts (mouse skin fibroblasts): exhibited migration-promoting activity

(17-25): synthetic peptide consisting of the amino acid sequence from positions 17 to 25 of HMGB1 (AFFVQTCRE; UniProt P09429 17-25, looked up, fragment)
ratio of the uncured area relative to the area of the whole skin flap, average [5]: 3.5% | migration-promoting activity ([2]; synthetic peptides, 5 μM, FIGS. 8A and 8B): weak activity | ratio of the uncured area relative to the area of the whole skin flap, average ([4]; two weeks after skin flap production, 50 μg/administration/day, five administrations, 15 SD rats per group, FIG. 26): 9.1%

recombinant HMGB1 protein: recombinant HMGB1 protein administered to mice or rats in the inventors' previous studies
side effects [6]: no side effects were observed
